Experimental findings from US4598077A, “Amidine derivatives and cardiotonic compositions” (Torii & Co. Ltd., priority 1983, dated 1986) are described below.

The subject of data set [1] is papillary muscle preparation. Nature of the data set: Isolated, blood-perfused papillary muscle preparation, developed tension (Table 1). Conditions: Canis lupus familiaris, close-arterial injection, read-out: Papillary muscle preparation, % increase in developed tension; for activation at 0.03 mg: dose 30 μg; for activation at 0.1 mg: dose 100 μg; for activation at 0.3 mg: dose 300 μg. The arrangement: species or system Mongrel dogs. How it is done: Mongrel dogs of either sex weighting 7.5-10 kg were anesthetized with sodium pentobarbital (30 mg/kg, i.v.). Each animal was given an intravenous dose of sodium heparin (500 units/kg), thereafter, the heart was removed and placed in cold Tyrode solution. The isolated and cross-circulated right atrium and papillary muscle preparations were arranged for perfusion from a donor dog as follows. The donor dog was also anesthetized with sodium pentobarbital (30 mg/kg, i.v.); heparin (500 units/kg) was given intravenously immediately before the perfusion began. (a) The isolated, blood-perfused papillary muscle preparation. The anterior septal artery was dissected and cannulated with polyethylene tubing. The tendinous end of the papillary muscle was connected to a strain-gauge transducer by a fine silk thread and the muscles were under about 2 g of resting tension. The papillary muscle preparation was electrically driven at a constant frequency of 120/min with rectangular pulses of 1-3 V and 5 msec duration. The preparation of the blood-perfused papillary muscle has been described in detail by Endoh and Hashimoto Am. J. Physiol, 218, 1459-1463 (1970). Each preparation was perfused with the arterial blood from the carotid artery of the donor dog at a constant perfusion pressure of 100 mmHg by means of a peristaltic pump. The venous effluent from the preparations was collected in a reservoir and returned to the donor dog through the jugular vein. Test compounds used in these experiments were dissolved in vehicle solution and were injected closearterially to the preparations. The effects of each compound on the developed tension and sinuo rate were evaluated as a percentage change in values determined before and after administration of the compound. In Table 1 are shown such changes in terms of the percentage increase after administration.

Data set [2] relates to anesthetized open-chest dogs. As to the kind of experiment: Cardiovascular effect in anesthetized open-chest dogs (Table 2). The class given is in vivo, Mongrel dogs. Conditions: femoral vein; for change in vivo at 0.03 mg/kg / change in vivo at 0.1 mg/kg / change in vivo at 0.3 mg/kg: Canis lupus familiaris, iv. As to the method: Mongrel dogs of either sex weighing 9-15 kg were anesthetized with sodium pentobarbital (30 mg/kg, i.v.). The heart was exposed by thoractomy by the left fifth intercostal incision under artificial respiration. Aortic flow was measured by the probe of electromagnetic flowmeter placed around the ascending aorta. Myocardial contractility was measured by the maximal rate of rise of left ventricular pressure which was recorded from a needle inserted into the ventricular cavity. The systemic blood pressure was measured with a pressure transducer by means of a polyethylene cannular inserted into the femoral artery. The heart rate was recorded by a cardiotrachometer triggered by R wave of electrocargiogram (Lead II). Test compounds were dissolved in vehicle solution and were injected into the femoral vein. The effects of each compound on the cardiac contractility and aortic flow were evaluated as a percentage change in values determined before and after administration of the compound. In Table 2 are shown such changes in terms of the percentage increase after administration.

The test system of a further data set is right atrium preparation. As to the kind of experiment: Isolated, blood-perfused right atrium preparation, sinus rate (Table 1). Details: species or system Mongrel dogs. Conditions: Canis lupus familiaris, close-arterial injection, read-out: Right atrium preparation; for activation at 0.03 mg: dose 30 μg; for activation at 0.03 mg / activation at 0.1 mg / activation at 0.3 mg: % increase in sinus rate; for activation at 0.1 mg / inhibition at 0.1 mg: dose 100 μg. As to the method: Mongrel dogs of either sex weighting 7.5-10 kg were anesthetized with sodium pentobarbital (30 mg/kg, i.v.). Each animal was given an intravenous dose of sodium heparin (500 units/kg), thereafter, the heart was removed and placed in cold Tyrode solution. The isolated and cross-circulated right atrium and papillary muscle preparations were arranged for perfusion from a donor dog as follows. The donor dog was also anesthetized with sodium pentobarbital (30 mg/kg, i.v.); heparin (500 units/kg) was given intravenously immediately before the perfusion began. (b) The isolated, blood-perfused right atrium preparation. The sinus node artery was cannulated at its origin in the right coronary artery. A right atrial electrogram was obtained from bipolar electrodes which were placed in close proximity to the sinoatrial node. The sinus rate was recorded by a cardiotachometer triggered by the right atrial electrogram. The details of the bloodperfused right atrium preparation have been described by Chiba et al. (Tohoku J. exp. Med., 107, 101-102 (1972) and Kubota and Hashimoto (Naunyn-Schmiedeberg's Arch. Pharmacol., 278, 135-150 (1973)). Each preparation was perfused with the arterial blood from the carotid artery of the donor dog at a constant perfusion pressure of 100 mmHg by means of a peristaltic pump. The venous effluent from the preparations was collected in a reservoir and returned to the donor dog through the jugular vein. Test compounds used in these experiments were dissolved in vehicle solution and were injected closearterially to the preparations. The effects of each compound on the developed tension and sinuo rate were evaluated as a percentage change in values determined before and after administration of the compound. In Table 1 are shown such changes in terms of the percentage increase after administration.

A further data set can be described thus: Toxicity (LD50). Conditions: in vivo, iv; mouse; I.V.
Setting [3] is: 0.03 mg/kg, read-out: Increase in aortic flow (%).
Setting [4] is: 0.03 mg/kg, read-out: Increase in cardiac contractility (%).
Where [5] appears, read: read-out: Increase in aortic flow (%).
[6] abbreviates: read-out: Increase in cardiac contractility (%).
[7] abbreviates: 0.3 mg/kg, read-out: Increase in aortic flow (%).
[8] abbreviates: 0.3 mg/kg, read-out: Increase in cardiac contractility (%).
The mark [9] stands for this setting: % decrease in sinus rate (in parentheses).

Molecules are shown by their SMILES. Where a name gives a salt, the structure may show the parent alone. Read-outs that look alike come from different tables or passages of the source.

With `Cl.Cl.N=C(N)c1ccc(CCc2ccc(CN)cc2)cc1` [Compound 2, 4-[2-(4-Aminomethylphenyl)ethyl]benzamidine dihydrochloride], the figures for the activation at 0.03 mg (in data set [1]; in the data set on right atrium preparation) were 63.8% and 10.7%, respectively. In addition, the figures for the activation at 0.1 mg (in data set [1]; with right atrium preparation) were 104% and 21.8%, respectively. Besides, the change in vivo at 0.03 mg/kg in data set [2] (setting [3]) is 5%; in data set [2] (setting [4]), 7.1%. The change in vivo at 0.1 mg/kg in data set [2] (setting [5]) turned out to be 16.1%; in data set [2] (setting [6]), 25%. Moreover, the LD50 in the data set “Toxicity (LD50)” stood at 40 mg/kg.
On to `Cl.Cl.N=C(NCCc1ccccc1)c1ccc(CCc2ccc(CN)cc2)cc1` [Compound 5, 4-[2-(4-Aminomethylphenyl)ethyl]-N-(2-phenylethyl)benzamidine dihydrochloride], for which the figures for the activation at 0.03 mg (in data set [1]; in the data set with right atrium preparation) were 33.3% and 16%, respectively. The results for the activation at 0.1 mg (in data set [1]; in the data set with right atrium preparation) were 53.5% and 17.7%, respectively. The change in vivo at 0.1 mg/kg in data set [2] (setting [5]) amounted to 5%; in data set [2] (setting [6]) it was 12.9%. Besides, the change in vivo at 0.3 mg/kg was determined as 19.2% in data set [2] (setting [7]) and 38.9% in data set [2] (setting [8]). In “Toxicity (LD50)”, this compound yielded a 50% lethal dose (LD50) of 57.7 mg/kg.
Turning to `CC(=O)O.CC(=O)O.N=C(N)c1ccc(OCc2ccc(CN)cc2)cc1` [Compound 8, 4-(4-aminomethylbenzyloxy)benzamidine diacetate], the values for the activation at 0.1 mg (in data set [1]; with right atrium preparation) were 20.7% and 2.2%, respectively. In addition, the activation at 0.3 mg in data set [1] turned out to be 44.8%; in the data set on right atrium preparation (dose 300 μg), 7.5%. Further, the change in vivo at 0.1 mg/kg in data set [2] (setting [5]) came to 6.1%; in data set [2] (setting [6]) it was 0%. Also, the change in vivo at 0.3 mg/kg in data set [2] (setting [7]) came to 9.5%; in data set [2] (setting [8]), 16.7%. In the data set with right atrium preparation (setting [9]), the inhibition at 0.1 mg was 7.7%. In the data set on right atrium preparation (dose 300 μg, % decrease in sinus rate (in parentheses)), the inhibition at 0.3 mg worked out at 9.7%. The compound further returned a 50% lethal dose (LD50) in the data set “Toxicity (LD50)” of 57.7 mg/kg.
For the compound `NCc1ccc(CCc2ccc(C3=NCCN3)cc2)cc1` [Compound 15, 2-{4-[2-(4-Aminomethylphenyl)ethyl]phenyl}imidazoline dihydrochloride], the figures for the activation at 0.03 mg (in data set [1]; with right atrium preparation) were 49.2% and 22.8%, respectively. The activation at 0.1 mg in data set [1] came to 100%; with right atrium preparation, 34.7%. Further, the change in vivo at 0.1 mg/kg in data set [2] (setting [5]) turned out to be 5.9%; in data set [2] (setting [6]) it was 25%. Moreover, the change in vivo at 0.3 mg/kg in data set [2] (setting [7]) is 10%; in data set [2] (setting [8]) it was 56.5%.
As for `CNC(=N)c1ccc(CCc2ccc(CN)cc2)c([N+](=O)[O-])c1.Cl.Cl` [Compound 16, 4-[2-(4-Aminomethylphenyl)ethyl]-N-methyl-3-nitrobenzamidine dihydrochloride], the results for the activation at 0.03 mg (in data set [1]; in the data set with right atrium preparation) were 26% and 21.9%, respectively. Further, the activation at 0.1 mg in data set [1] worked out at 70.2%; in the data set on right atrium preparation it was 29.7%. Besides, in data set [2] (0.3 mg/kg), the “% decrease in aortic flow (in parentheses)” value (“% decrease in aortic flow” for short) was -7.0%. Besides, the change in vivo at 0.1 mg/kg in data set [2] (setting [5]) was 9%; in data set [2] (setting [6]), 32%. Besides, the change in vivo at 0.3 mg/kg in data set [2] (setting [7]) stood at 16.3%; in data set [2] (setting [8]), 69.4%.
With `CN=C(NC)c1ccc(CCc2ccc(CN)cc2OC)cc1` [Compound 17, 4-[2-(4-Aminomethyl-2-methoxyphenyl)ethyl]-N,N'-dimethylbenzamidine dihydrochloride], the activation at 0.1 mg in data set [1] is 76.5%; in the data set with right atrium preparation, 14.3%. The activation at 0.3 mg came out at 110% in data set [1] and 20.3% with right atrium preparation (dose 300 μg). The change in vivo at 0.03 mg/kg in data set [2] (setting [3]) turned out to be 4.7%; in data set [2] (setting [4]), 13.5%. The change in vivo at 0.1 mg/kg stood at 17% in data set [2] (setting [5]) and 76.5% in data set [2] (setting [6]).
As for `CN=C(NC)c1ccc(CCc2ccc(CN)cc2[N+](=O)[O-])cc1.Cl.Cl` [Compound 18, 4-[2-(4-Aminomethyl-2-nitrophenyl)ethyl]-N,N'-dimethylbenzamidine dihydrochloride], the results for the activation at 0.1 mg (in data set [1]; in the data set with right atrium preparation) were 64% and 14%, respectively. The activation at 0.3 mg in data set [1] came to 86.5%; in the data set on right atrium preparation (dose 300 μg) it was 34.8%. Moreover, in data set [2] (0.3 mg/kg), the “% decrease in aortic flow” value is given as -5.3%. The change in vivo at 0.1 mg/kg came to 14.3% in data set [2] (setting [5]) and 59.3% in data set [2] (setting [6]). Moreover, the change in vivo at 0.3 mg/kg in data set [2] (setting [7]) is 23.7%; in data set [2] (setting [8]) it was 155%. Further, the inhibition at 0.1 mg with right atrium preparation (setting [9]) came to 1.8%.
For the compound `COc1cc(CN)ccc1CCc1ccc(C(=N)NCCc2ccccn2)cc1.Cl.Cl.Cl` [Compound 19, 4-[2-(4-Aminomethyl-2-methoxyphenyl)ethyl]-N-[2-(2-pyridyl)ethyl]benzamidine trihydrochloride], the activation at 0.1 mg in data set [1] was 72.4%; with right atrium preparation, 21.9%. In addition, the activation at 0.3 mg in data set [1] was found to be 108%; in the data set on right atrium preparation (dose 300 μg) it was 35.8%. Further, in data set [2] (0.3 mg/kg), the “% decrease in aortic flow” value is recorded as -1.2%. Besides, in data set [2] (0.3 mg/kg), the “% decrease in cardiac contractility (in parentheses)” value was -7.1%. In addition, the values for the change in vivo at 0.1 mg/kg in data set [2] (setting [5]) and in data set [2] (setting [6]) were 9.2% and 20%, respectively. Moreover, the change in vivo at 0.3 mg/kg in data set [2] (setting [7]) came to 11.9%; in data set [2] (setting [8]) it was 129%.
`COc1cc(CN)ccc1CCc1ccc(C2=NCCN2)cc1` [Compound 20, 2-{4-[2-(4-Aminomethyl-2-methoxyphenyl)ethyl]phenyl}imidazoline dihydrochloride]: the activation at 0.1 mg worked out at 72.2% in data set [1] and 26.8% in the data set on right atrium preparation. Also, the activation at 0.3 mg in data set [1] turned out to be 104%; in the data set with right atrium preparation (dose 300 μg), 45.7%. The “% decrease in aortic flow” value in data set [2] (0.03 mg/kg) is given as -1.1%. Besides, the “% decrease in cardiac contractility (in parentheses)” value in data set [2] (0.03 mg/kg) was -7.8%. The change in vivo at 0.03 mg/kg stood at 7.9% in data set [2] (setting [3]) and 78.6% in data set [2] (setting [4]).

Broadly, the LD50 is the dose expected to kill half of the subjects tested. A low value points to greater toxicity.
